Source: US11667632B2, “2-(1H-indazol-3-yl)-3H-imidazo[4,5-C]pyridines and their anti-inflammatory uses thereof” (BioSplice Therapeutics, Inc., priority 2015, dated 2023)
pEC50: −log10 of the molar value. Marks after values point to notes of the source that are not given here.

Legend:
IL-6 = test: Inhibition of IL-6 in LPS-stimulated human monocyte cells (THP-1), HTRF; assay type: cell-based; conditions: THP-1 cells; for pEC50: Homo sapiens, LPS 500 ng/mL, IL-6 by HTRF; for percent inhibition of IL-6 at 10 μM: LPS-stimulated, dose-response starting from 10 μM
Protocol: Human Monocyte Cell Culture: A human monocyte cell line (THP-1 cells; Catalog #TIB-202, ATCC, Manassas, Va.) was cultured in Roswell Park Memorial Institute (RPMI) 1640 Medium (Catalog #21870-100, Buffalo, N.Y.) with 1% L-glutamine, 1% HEPES, 1% sodium pyruvate, 2% sodium bicarbonate supplemented with 100 units/mL penicillin, 50 μg/mL streptomycin, 2-mercaptoethanol (0.05 mM) [basal medium] and 10% fetal bovine serum (Catalog #16140089, Life Technologies, Carlsbad, Calif.) at 37° C. and 5% CO2.
Compound Screening: THP-1 cells were cultured in basal media with 1% FBS for 24 hours before the start of the assay. Each compound of Formula (I) was dissolved in DMSO as a 10 mM stock and used to prepare compound source plates. Serial dilution (1:3, 10-point dose-response curves starting from 10 μM) and compound transfer was performed using the ECHO 550 (Labcyte, Sunnyvale, Calif.) into 384-well white low volume assay plates (Greiner Bio-One) with appropriate DMSO backfill for a final DMSO concentration of 0.1%. THP-1 cells were plated at 5000 cells/well in the 384-well plates and incubated at 37° C. for 2 h. 500 ng/mL of LPS was added after 2 hours and cells were incubated for another 22 hours at 37° C. Plates were spun in a centrifuge for 1 minute at 10,000 rpm and a mixture of anti-IL-6 XL665, and anti-IL-6 Cryptate diluted in reconstitution buffer (Cisbio Inc.) was added to each well. Following incubation for 3 hrs at room temperature, homogeneous time-resolved fluorescence (HTRF) was measured using the Envision (Perkin Elmer) at 665 nm and […]. The ratio of fluorescence at 665 nm to 620 nm was used as a readout for IL-6 quantification. All samples were processed in duplicate. Readings were normalized to DMSO treated cells and normalized activities were utilized for EC50 calculations using the dose-response log (inhibitor) vs. response -variable slope (four parameters) nonlinear regression feature available in GraphPad Prism 5.0 (or Dotmatics). For EC50 of >10 μM, the percent inhibition at 10 μM is provided.

[1] = Competitive slurry experiments between polymorph forms (thermodynamic stability); assay type: physicochemical; conditions: EA at RT and 50° C.; slurried 3-5 days, XRD
Protocol: In order to find out the thermodynamic stability between the different forms, several competitive slurry experiments were carried out. Form 1, Form 2, Form 2*, Form 3, Form 4, Form 4*, Form 4**, Form 5, Form 7, Form 8, Form 9, Form 10, Form 11, Form 11*, and Form 13 (10 mg for each) was mixed and slurried in 2 mL of solvent at both RT and 50° C. The solids were slurried for 3-5 days and then analyzed by XRD.
In order to find out the thermodynamic stability between Form 13 and Form 9, several competitive slurry experiments were carried out. 15 mg of Form 1, Form 9 and Form 13 solid were mixed in 1 mL of toluene, IPAc, and n-butyl acetate, and slurried for 3 days at RT and 50° C.
The residual solid was analyzed by XRD.

[2] = Dynamic vapor sorption (DVS) scan; assay type: physicochemical; conditions: for water absorption (DVS scan): at 90% RH
From the text: The purity of the Form 13 sample was 98.8%; the KF of an undried Form 13 sample was 35.7%.

[3] = Slurry experiments in various solvents (polymorph screen); assay type: physicochemical
Protocol: Slurry experiments in various solvents were performed. Approximately 30-80 mg of the starting solid (a non-stoichiometric hydrate of Form 1 having between […] and about 20% by weight water) was slurried in 39 different solvents (pure and binary solvents; the ratio of organic solvent/water (V/V) was […]) at RT and 50° C. for 5 days. Three solvates, one non-stoichiometric hydrate, and eleven non-solvated forms were identified. […] XRD of both wet and dry samples were scanned (FIG. 12A (dry sample)).
The slurry experiments identified 3 solvated forms from wet samples (Solvates 1, 2, and 3); 2 non-stoichiometric hydrates of Form 1 (Forms 12 and 13); and 11 non-solvated forms (Forms 1-11). In some instances, similar XRD scans with minor differences were obtained. These were considered to be part of the same class (e.g., the same form). For example, XRD scans of Form 2 and Form 2* were similar and were considered to belong to the same class. The solvated forms were obtained from wet sample analysis; after drying, the sample indicated a different XRD.
Solvate 1 was obtained from acetone at RT, and after drying, a low crystallinity solid was generated. Solvate 2 was obtained from acetone (at RT) and acetone/water (at RT), and after drying, Form 4** was generated. Solvate 3 was obtained from EtOH/water at RT, and after drying, Form 2 was generated.

[4] = slurry in Acetonitrile/water (5% water), RT
[5] = slurry in EA/water (5% water), RT
[6] = slurry in Heptane/water (5% water), RT
[7] = slurry in IPAc/water (5% water), RT
[8] = slurry in MA/water (5% water), 50° C.
[9] = slurry in MIBK/water (5% water), RT
[10] = slurry in MeOH/water (5% water), RT
[11] = slurry in MtBE/water (5% water), RT
[12] = slurry in n-Butyl acetate/water (5% water), RT
[13] = slurry in Acetone/water (5% water), RT
[14] = slurry in EtOH/water (5% water), RT

## CN1CCN(c2cncc3[nH]c(-c4n[nH]c5ccc(-c6cccnc6)cc45)nc23)CC1 [4*]
IL-6
  pEC50: 7.13
[1]
  thermodynamic stability between forms (competitive slurry): most stable

## O=C(Nc1cncc(-c2ccc3[nH]nc(-c4nc5ccncc5[nH]4)c3c2)c1)c1ccccc1 [Compound 275]
IL-6
  pEC50: < 5.00
  percent inhibition of IL-6 at 10 μM: (9.9%)

## CC(C)(C)CC(=O)Nc1cncc(-c2ccc3[nH]nc(-c4nc5ccncc5[nH]4)c3c2)c1 [Compound 280]
IL-6
  pEC50: 6.14

## O=C(Nc1cncc(-c2ccc3[nH]nc(-c4nc5ccncc5[nH]4)c3c2)c1)C1CC1 [Compound 283]
IL-6
  pEC50: < 5.00
  percent inhibition of IL-6 at 10 μM: (50.7%)

## O=C(Nc1cncc(-c2ccc3[nH]nc(-c4nc5ccncc5[nH]4)c3c2)c1)C1CCCCC1 [Compound 286]
IL-6
  pEC50: 6.08

## CCC(=O)Nc1cncc(-c2ccc3[nH]nc(-c4nc5c(-c6ccsc6)cncc5[nH]4)c3c2)c1 [Compound 289]
IL-6
  pEC50: 7.80

## Nc1cncc(-c2ccc3[nH]nc(-c4nc5c(-c6ccsc6)cncc5[nH]4)c3c2)c1 [Compound 291]
IL-6
  pEC50: 7.96

## Cc1ccncc1-c1ccc2[nH]nc(-c3nc4c(-c5ccsc5)cncc4[nH]3)c2c1 [Compound 293]
IL-6
  pEC50: 7.24

## CN(C)c1cncc(-c2ccc3[nH]nc(-c4nc5c(-c6ccsc6)cncc5[nH]4)c3c2)c1 [Compound 295]
IL-6
  pEC50: 7.33

## CN(C)Cc1cncc(-c2ccc3[nH]nc(-c4nc5c(-c6ccsc6)cncc5[nH]4)c3c2)c1 [Compound 301]
IL-6
  pEC50: 6.90

## c1cc(-c2cncc3[nH]c(-c4n[nH]c5ccc(-c6cncc(CN7CCCCC7)c6)cc45)nc23)cs1 [Compound 303]
IL-6
  pEC50: 5.99

## CC(C)(C)CC(=O)Nc1cncc(-c2ccc3[nH]nc(-c4nc5c(-c6ccsc6)cncc5[nH]4)c3c2)c1 [Compound 304]
IL-6
  pEC50: 7.40

## c1cc(-c2cncc3[nH]c(-c4n[nH]c5ccc(-c6cncc(CNCC7CCCC7)c6)cc45)nc23)cs1 [Compound 311]
IL-6
  pEC50: 6.67

## c1cncc(-c2ccc3[nH]nc(-c4nc5c(-c6ccoc6)cncc5[nH]4)c3c2)c1 [Compound 315]
IL-6
  pEC50: 6.68

## CC(C)(C)C(=O)Nc1cncc(-c2ccc3[nH]nc(-c4nc5c(-c6ccoc6)cncc5[nH]4)c3c2)c1 [Compound 319]
IL-6
  pEC50: 7.11

## O=C(Cc1ccccc1)Nc1cncc(-c2ccc3[nH]nc(-c4nc5c(-c6ccoc6)cncc5[nH]4)c3c2)c1 [Compound 321]
IL-6
  pEC50: 6.16

## CCCCC(=O)Nc1cncc(-c2ccc3[nH]nc(-c4nc5c(-c6ccoc6)cncc5[nH]4)c3c2)c1 [Compound 329]
IL-6
  pEC50: 7.24

## O=C(Nc1cncc(-c2ccc3[nH]nc(-c4nc5c(-c6ccoc6)cncc5[nH]4)c3c2)c1)C1CC1 [Compound 330]
IL-6
  pEC50: 5.23

## O=C(Nc1cncc(-c2ccc3[nH]nc(-c4nc5c(-c6ccoc6)cncc5[nH]4)c3c2)c1)C1CCCCC1 [Compound 333]
IL-6
  pEC50: 6.99

## Fc1cccc(-c2cncc3[nH]c(-c4n[nH]c5ccc(-c6cncc(CN7CCC(F)(F)C7)c6)cc45)nc23)c1 [Compound 336]
IL-6
  pEC50: 7.15

## FC1(F)CCN(Cc2cncc(-c3ccc4[nH]nc(-c5nc6c(-c7cccnc7)cncc6[nH]5)c4c3)c2)C1 [Compound 339]
IL-6
  pEC50: 7.01

## FC1(F)CCN(Cc2cncc(-c3ccc4[nH]nc(-c5nc6c(N7CCCCC7)cncc6[nH]5)c4c3)c2)C1 [Compound 342]
IL-6
  pEC50: 6.96

## FC1(F)CCN(Cc2cncc(-c3ccc4[nH]nc(-c5nc6c(-c7ccsc7)cncc6[nH]5)c4c3)c2)C1 [Compound 346]
IL-6
  pEC50: 7.43

## CC(C)CC(=O)Nc1cncc(-c2ccc3[nH]nc(-c4nc5c(-c6cc(F)cc(NCCN(C)C)c6)cncc5[nH]4)c3c2)c1 [Compound 349]
IL-6
  pEC50: 7.47

## CC(C)CC(=O)Nc1cncc(-c2ccc3[nH]nc(-c4nc5c(-c6cc(F)cc(CNS(C)(=O)=O)c6)cncc5[nH]4)c3c2)c1 [Compound 373]
IL-6
  pEC50: 7.47

## CC(C)CC(=O)Nc1cncc(-c2ccc3[nH]nc(-c4nc5c(-c6cccs6)cncc5[nH]4)c3c2)c1 [Compound 397]
IL-6
  pEC50: 7.85

## CC(C)CC(=O)Nc1cncc(-c2ccc3[nH]nc(-c4nc5c(-c6cccc(F)c6)cncc5[nH]4)c3c2)c1 [Form 1]
[2]
  water absorption (DVS scan): 17%

## CC(C)CC(=O)Nc1cncc(-c2ccc3[nH]nc(-c4nc5c(-c6cccc(F)c6)cncc5[nH]4)c3c2)c1 [Form 9]
[2]
  change of form before and after the DVS scan: did not change its form
  water absorption (DVS scan): 0.8%

## CC(C)CC(=O)Nc1cncc(-c2ccc3[nH]nc(-c4nc5c(-c6cccc(F)c6)cncc5[nH]4)c3c2)c1 [Form 12]
[3]; [4]
  Form, Dry: Form 1
  Form, Wet: Form 12
[3]; [5]
  Form, Dry: Form 1
  Form, Wet: Form 12
[3]; [6]
  Form, Dry: Form 12
  Form, Wet: Form 13
[3]; [7]
  Form, Dry: Form 1
  Form, Wet: Form 12
[3]; [8]
  Form, Dry: Form 4
  Form, Wet: Form 12
[3]; [9]
  Form, Dry: Form 1
  Form, Wet: Form 12
[3]; [10]
  Form, Dry: Form 1
  Form, Wet: Form 12
[3]; [11]
  Form, Dry: Form 1
  Form, Wet: Form 12
[3]; [12]
  Form, Dry: Form 12
  Form, Wet: Form 13

## CC(C)CC(=O)Nc1cncc(-c2ccc3[nH]nc(-c4nc5c(-c6cccc(F)c6)cncc5[nH]4)c3c2)c1 [Solvate 1]
[3]; slurry in Acetone, RT
  Form, Dry: Low
  Form, Wet: Solvate 1

## CC(C)CC(=O)Nc1cncc(-c2ccc3[nH]nc(-c4nc5c(-c6cccc(F)c6)cncc5[nH]4)c3c2)c1 [Solvate 2]
[3]; slurry in Acetone, 50° C.
  Form, Dry: Form 4**
  Form, Wet: Solvate 2
[3]; [13]
  Form, Dry: Form 4**
  Form, Wet: Solvate 2

## CC(C)CC(=O)Nc1cncc(-c2ccc3[nH]nc(-c4nc5c(-c6cccc(F)c6)cncc5[nH]4)c3c2)c1 [Solvate 3]
[3]; [14]
  Form, Dry: Form 2
  Form, Wet: Solvate 3
